Experimental data reported in patent publication US20100298141A1, “SUBSTITUTED PYRIDINE N-OXIDE HERBICIDES” (E. I. DU PONT DE NEMOURS AND COMPANY, priority 2007, published 2010).

Columns and labels:
Experiment in all cases: Test F preemergence test
[1] = tested on: common chickweed; format: in vivo, Stellaria media; conditions: scale 0 to 100
Source text: (§1) Seeds of plant species selected from bermudagrass (Cynodon dactylon), Surinam grass (Brachiaria decumbens), large crabgrass (Digitaria sanguinalis), green foxtail (Setaria viridis), goosegrass (Eleusine indica), johnsongrass (Sorghum halepense), kochia (Kochia scoparia), pitted morningglory (Ipomoea lacunosa), purple nutsedge (Cyperus rotundus), common ragweed (Ambrosia elation), mustard (Brassica nigra), guineagrass (Panicum maximum), […] (Paspalum dilatatum), barnyardgrass (Echinochloa crus-galli), southern sandbur (Cenchrus echinatus), common sowthistle (Sonchus oleraceous), prickly […] spinosa), Italian ryegrass (Lolium multiflorum), common purslane (Portulaca oleracea), broadleaf signalgrass (Brachiaria platyphylla), common groundsel (Senecio vulgaris), common chickweed (Stellaria media), Virginia dayflower (Commelina virginica), annual bluegrass (Poa annua), naked crabgrass (Digitaria nuda), […] cochinchinensis), quackgrass (Elytrigia repens), Canada horseweed (Conyza canadensis), field bindweed (Convolvulus arvensis), […] (Bidens bipinnata), common mallow (Malva sylvestris), Russian thistle (Salsola kali), and sugarcane (Saccharum officinarum) were planted and treated preemergence with test chemicals formulated in a non-phytotoxic solvent mixture which included a surfactant. At a different time, sugarcane was treated with postemergence applications of some of the test chemicals formulated in the same manner. Plants were approximately 3- to 4-leaf stage for the postemergence treatments. Treated plants and controls were maintained in a greenhouse for 14 to 21 days, after which time all species were compared to controls and visually evaluated. […] A dash (-) response means no test result.

[2] = tested on: Canada horseweed; format: in vivo, Conyza canadensis; conditions: scale 0 to 100
Source text: as §1

[3] = tested on: barnyardgrass; format: in vivo, Echinochloa crus-galli
Source text: as §1

[4] = tested on: large crabgrass; format: in vivo, Digitaria sanguinalis; conditions: scale 0 to 100
Source text: as §1

[5] = tested on: common sowthistle; format: in vivo, Sonchus oleraceous; conditions: scale 0 to 100
Source text: as §1

[6] = tested on: Virginia dayflower; format: in vivo, Commelina virginica; conditions: scale 0 to 100
Source text: as §1

[7] = tested on: spanishneedles; format: in vivo, Bidens bipinnata; conditions: scale 0 to 100
Source text: as §1

[8] = 16 g ai/ha, preemergence, scale 0 to 100 (0 no effect, 100 complete control)
[9] = 62 g ai/ha, Preemergence, scale 0 to 100
[10] = 125 g ai/ha, preemergence, scale 0 to 100
[11] = Preemergence, 31 g ai/ha, scale 0 to 100
[12] = Preemergence, 62 g ai/ha, scale 0 to 100

Row | Structure (SMILES) | Chickweed plant response rating ([1]; 125 g ai/ha, preemergence) | Plant response rating, Chickweed ([1]; Preemergence, 31 g ai/ha) | Plant response rating, Horseweed ([2]; 16 g ai/ha, preemergence) | Horseweed plant response rating ([2]; 62 g ai/ha, Preemergence) | Horseweed plant response rating ([2]; 125 g ai/ha, preemergence) | Plant response rating, Horseweed ([2]; Preemergence, 31 g ai/ha) | Plant response rating, Barnyardgrass [3, 8] | Barnyardgrass plant response rating [3, 9] | Barnyardgrass plant response rating [3, 10] | Plant response rating, Barnyardgrass [3, 11] | Plant response rating, Crabgrass, Large ([4]; 16 g ai/ha, preemergence) | Crabgrass, Large plant response rating ([4]; 62 g ai/ha, Preemergence) | Crabgrass, Large plant response rating ([4]; 125 g ai/ha, preemergence) | Plant response rating, Crabgrass, Large ([4]; Preemergence, 31 g ai/ha) | Sowthistle plant response rating ([5]; 125 g ai/ha, preemergence) | Plant response rating, Sowthistle ([5]; Preemergence, 62 g ai/ha) | Plant response rating, Spanishneedles ([7]; 16 g ai/ha, preemergence) | Spanishneedles plant response rating ([7]; 125 g ai/ha, preemergence) | Plant response rating, Spanishneedles ([7]; Preemergence, 62 g ai/ha) | Plant response rating, Spanishneedles ([7]; Preemergence, 31 g ai/ha) | also measured
1 | CCn1nc(C(F)(F)F)c(C[S+]([O-])c2cc(C)cc[n+]2[O-])c1OCC(F)(F)F (racemic) [Compound 66] | 100 | 100 | 50 | 90 | 100 | 50 | 30 | 100 | 100 | 75 | 0 | 80 | 95 | 70 | 100 | 100 | 15 | 100 | 80 | 65 | Plant response rating, Chickweed ([1]; 16 g ai/ha, preemergence): 100; Chickweed plant response rating ([1]; 62 g ai/ha, Preemergence): 100; Plant response rating, Sowthistle ([5]; 16 g ai/ha, preemergence): 0; Plant response rating, Sowthistle ([5]; Preemergence, 31 g ai/ha): 0; Plant response rating, Dayflower ([6]; 16 g ai/ha, preemergence): 0; Plant response rating, Dayflower ([6]; Preemergence, 31 g ai/ha): 0
2 | Cc1cc[n+]([O-])c(S(=O)(=O)Cc2c(C(F)(F)F)nn(C)c2OCC(F)(F)F)c1 [Compound 31] |  |  |  |  |  |  | 50 | 100 | 100 | 95 | 30 |  | 100 | 95 |  |  | 0 |  | 100 | 100 | Plant response rating, Dayflower ([6]; 16 g ai/ha, preemergence): 30; Dayflower plant response rating ([6]; 62 g ai/ha, Preemergence): 100; Dayflower plant response rating ([6]; 125 g ai/ha, preemergence): 100; Plant response rating, Dayflower ([6]; Preemergence, 31 g ai/ha): 65
3 | CCc1cc[n+]([O-])c(S(=O)(=O)Cc2c(C(F)(F)F)nn(C)c2OCC(F)(F)F)c1 [Compound 60] | 100 | 100 |  | 100 | 100 | 95 |  | 100 | 100 | 65 |  | 98 | 100 | 0 | 100 | 100 |  | 80 | 80 | 20 | Chickweed plant response rating ([1]; 62 g ai/ha, Preemergence): 100; Chickweed plant response rating ([1]; 250 g ai/ha, preemergence): 100; Horseweed plant response rating ([2]; 250 g ai/ha, preemergence): 100; Barnyardgrass plant response rating ([3]; 250 g ai/ha, preemergence, scale 0 to 100): 100; Crabgrass, Large plant response rating ([4]; 250 g ai/ha, preemergence): 100; Sowthistle plant response rating ([5]; 250 g ai/ha, preemergence): 100; Plant response rating, Sowthistle ([5]; Preemergence, 31 g ai/ha): 80; Spanishneedles plant response rating ([7]; 250 g ai/ha, preemergence): 100
4 | Cn1nc(OC(F)F)c(CS(=O)(=O)c2cccc[n+]2[O-])c1C(F)(F)F [Compound 80] |  |  | 0 | 100 | 100 | 0 | 85 | 95 | 100 | 90 | 40 | 80 | 90 | 80 |  |  | 0 | 0 | 0 | 0 | 
5 | Cn1nc(C(F)(F)F)c(C[S+]([O-])c2ccc(Cl)c[n+]2[O-])c1OCC(F)F (stereo not drawn) [Compound 85] |  |  | 25 |  | 100 | 100 | 50 |  | 100 | 80 | 60 |  | 90 | 70 | 100 | 100 | 50 | 100 | 100 | 50 | Plant response rating, Horseweed ([2]; Preemergence, 62 g ai/ha): 100; Plant response rating, Barnyardgrass [3, 12]: 90; Plant response rating, Crabgrass, Large ([4]; Preemergence, 62 g ai/ha): 90; Plant response rating, Sowthistle ([5]; 16 g ai/ha, preemergence): 0; Plant response rating, Sowthistle ([5]; Preemergence, 31 g ai/ha): 0
6 | CC(Oc1c(C[S+]([O-])c2ccc(Cl)c[n+]2[O-])c(C(F)(F)F)nn1C)C(F)(F)F (stereo not drawn) [Compound 87] | 100 | 100 |  |  |  |  | 60 |  | 100 | 75 | 30 |  | 100 | 65 |  |  | 0 | 100 | 100 | 0 | Plant response rating, Chickweed ([1]; 16 g ai/ha, preemergence): 0; Plant response rating, Chickweed ([1]; Preemergence, 62 g ai/ha): 100; Plant response rating, Barnyardgrass [3, 12]: 100; Plant response rating, Crabgrass, Large ([4]; Preemergence, 62 g ai/ha): 95; Plant response rating, Dayflower ([6]; 16 g ai/ha, preemergence): 35; Dayflower plant response rating ([6]; 125 g ai/ha, preemergence): 100; Plant response rating, Dayflower ([6]; Preemergence, 62 g ai/ha): 100; Plant response rating, Dayflower ([6]; Preemergence, 31 g ai/ha): 100
